Patent publication US6057286A, “Identification and use of selective inhibitors of glycogen synthase kinase 3” (Chiron Corporation, priority 1997, dated 2000)

What was measured:
[1] = system: Drosophila cells; assay: β-catenin stabilization assay of intracellular GSK3 activity (western blot); format: cell-based; settings: addition to Drosophila cells; detected on a western blot
Text: Other assays that test functional GSK3 also provide a further test of intracellular GSK3 activity. These assays rely on the ability to observe indirect consequences of GSK3 activity within cells. An example of such an assay involves β-catenin stabilization. Cellular GSK3 activity leads to the destabilization of cytosolic pools of β-catenin in certain types of cell. Consequently, inhibition of GSK3 results in β-catenin stabilization and accumulation, which be detected on a western blot. […] Similarly, LiCl in the cell culture medium causes an increase in intracellular β-catenin levels as described in Stambolic et al, Cur. Biol. 6(12): 1664-8 (1996).

[2] = system: HepG2 liver cells; assay: Insulin- and glucose-stimulated glycogen synthase activity in stable tissue culture cells; format: cell-based; settings: addition of insulin and glucose, in the presence of the GSK3 inhibitor
Text: Assays for glucose uptake and glycogen synthesis can be conducted as described for cell-based assays generally. To measure glucose uptake and glycogen synthesis, a variety of stable tissue culture cell lines that respond to insulin stimulation by increasing the synthesis of glycogen and increasing the rate of glucose uptake from the medium can be used. These include HepG2 liver cells, CHO-IR cells, and Hirc cells. Under appropriate conditions the addition of insulin and glucose to HepG2 cells stimulates glycogen synthase activity and this stimulation of potentiated in the presence of the GSK3 inhibitor iodotubercidin. The response of glucose uptake in these cells to insulin, glucose and inhibitor can be as much as six fold, and consequently this assay is useful to detect the ability of inhibitors to potentiate glycogen synthesis in cells.

## Nc1ncnc2c1c(I)cn2[C@@H]1O[C@H](CO)[C@@H](O)[C@H]1O [iodotubercidin]
[1]
  β-catenin accumulation: leads to β-catenin accumulation
[2]
  stimulation of glycogen synthase activity by insulin and glucose: potentiated
